{"source": "patent US20240118281A1", "about": "“ANTICANCER COMPOUNDS AND USES THEREOF” (University of Florida Research Foundation, Incorporated, priority 2021, published 2024)", "key": {"[1]": {"tested_on": "HER2+ BT474 xenograft tumors", "test": "BT474 xenograft tumor study, H&E staining of mammary fat pads/tumors", "type": "in vivo, mice", "settings": "20 mg/kg intraperitoneal, four consecutive days; vehicle tumors showed no necrosis", "experimental": "Breast cancer liver metastasis was initiated in NOD-SCID-gamma (NSG) mice obtained from Jackson Laboratories (Bar Harbor, ME) by injecting 1×10^6 cancer cells into the #4 mammary fat pads as described previously (Wang M, et al. Cell Death Discovery 2019; 5: 153). Mice bearing HCI-001/LVM2 breast tumors were treated once daily for four consecutive days with 20 mg/kg tcyDTDO by oral gavage and livers were collected. Animals bearing HER2+ BT474 tumors were treated with the vehicle or 20 mg/kg dMtcyDTDO or dFtcyDTDO by intraperitoneal injection for four consecutive days. Tissue samples fixed in 4% paraformaldehyde/PBS and paraffin-embedded were sectioned and stained with hematoxylin and eosin (H&E) by the University of Florida Molecular Pathology Core (https://molecular.pathology.ufl.edu/)."}, "MDA-MB-468 cells": {"tested_on": "MDA-MB-468 cells", "test": "Cell viability (MTT) assay", "type": "cell-based", "settings": "FIG. 1D", "experimental": "MTT (3-(4,5-dimethylthiazol-2-yl)-2,5-diphenyltetrazolium bromide) (Biomatik, Wilmington, DE) assays were performed by plating 7,500 cells/well in 10% FBS/DMEM in a 96-well plate, followed by incubation at 37° C. for 24 h. Cells were then treated with vehicle or increasing concentrations of tcyDTDO, dMtcyDTDO, or dFtcyDTDO and incubated at 37° C. for 72 h. Cell media was subsequently removed from each well and MTT assays were initiated by incubating cells with 0.5 mg/ml MTT in PBS for 3 h, followed by removal of the MTT solution and addition of 100 µL of DMSO to each well for 30 min. Absorbance of the MTT formazan product was subsequently measured at 570 and 690 (reference) nm in a plate reader."}, "DR4": {"tested_on": "DR4", "test": "Disulfide bond-mediated oligomerization, non-reducing immunoblot", "type": "cell-based", "settings": "MDA-MB-468 cells, 24 h", "source_text": "(§1) The BT20, BT474, BT549, MCF7, MDA-MB-231, MDA-MB-436, MDA-MB-468, HCC1143, HCC1500, HCC1569, HCC1937, HCC1954, Hs578t, and T47D cells lines were purchased from American Type Culture Collection (ATCC) (Manassas, VA). The HCI-001 cell line was derived from an ER-/PR-/HER2- patient-derived xenograft originally isolated from a patient as described previously (DeRose Y S, et al. Nat Med 2011; 17: 1514-1520). The HCI-001/LVM2 model was derived from the HCI-001 cell line by performing two rounds of selection for liver metastasis, as described previously (Wang M, et al. Cell Death Discovery 2019; 5: 153). Cell lines were grown in Dulbecco's Modified Eagle's Medium (GE Healthcare Life Sciences, Logan, UT) containing 10% fetal bovine serum (10% FBS—DMEM) in a humidified incubator with 5% CO2 at 37° C. Cell lysates were prepared as described previously (Law B K, et al. Mol Cell Biol. 2002; 22: 8184-8198). Immunoblot analysis was performed utilizing the following antibodies purchased from Cell Signaling Technology (Beverly, MA) [Akt, #4691; P-Akt[T308], #13038; ATF4, #11815; CHOP, #2895; Cleaved Caspase 8, #9496; DR4, #42533; DR5, #8074; EGFR, #4267; GRP78, #3177; HER3, #4754; PARP, #9532; PDIA1, #3501; XBP1s, #12782], from Santa Cruz Biotechnology (Santa Cruz, CA) [Actin, sc-47778; AGR2/3, sc-376653; AGR3, sc-390940; ERO1-a, sc-100805; and ERp44, sc-393687], or from Rockland Immunochemicals, Inc. (Limerick, PA), Streptavidin-Alkaline Phosphatase conjugated (SA-AP), S000-05.\n(§2) To assess protein disulfide bond-mediated oligomerization, cells were treated with DDAs for 24 h in 10% FBS-DMEM. Cells were subsequently scraped directly into the media and pelleted by centrifugation. Cells were extracted directly into boiling 2×-SDS-Sample Buffer containing 100 mM NEM and boiled for 10 min. Samples were sonicated, followed by centrifugation for 20 min at room temperature. Samples were subsequently analyzed by SDS-PAGE and immunoblot."}, "EGFR": {"tested_on": "EGFR", "test": "Disulfide bond-mediated oligomerization, non-reducing immunoblot", "type": "cell-based", "settings": "MDA-MB-468 cells, 24 h, FIG. 1E right", "source_text": "as §1, §2"}, "DR5": {"tested_on": "DR5", "test": "Disulfide bond-mediated oligomerization and levels, non-reducing immunoblot", "type": "cell-based", "settings": "MDA-MB-468 cells, 24 h", "source_text": "as §1, §2"}, "GRP78": {"tested_on": "GRP78", "test": "Endoplasmic reticulum stress (ERS) induction, immunoblot", "type": "cell-based", "settings": "MDA-MB-468 cells, 24 h", "source_text": "as §1, §2"}, "ERp44 [2]": {"biological_target": "T1, ERp44 (Homo sapiens, UniProt Q9BS26, S61C)", "T1 construct": "endogenous in cells; host or cells: MDA-MB-468", "T1 sequence (Q9BS26 30-406 S61C)": "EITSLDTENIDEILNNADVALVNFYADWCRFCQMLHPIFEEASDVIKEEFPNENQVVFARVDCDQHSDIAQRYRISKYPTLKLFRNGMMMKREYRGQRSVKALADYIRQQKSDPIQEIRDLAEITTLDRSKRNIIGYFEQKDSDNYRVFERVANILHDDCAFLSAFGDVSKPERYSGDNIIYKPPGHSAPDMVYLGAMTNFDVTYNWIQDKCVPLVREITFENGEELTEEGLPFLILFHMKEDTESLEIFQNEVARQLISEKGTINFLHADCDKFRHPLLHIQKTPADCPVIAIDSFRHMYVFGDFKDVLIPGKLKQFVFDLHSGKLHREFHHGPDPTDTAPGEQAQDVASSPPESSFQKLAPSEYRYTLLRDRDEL", "test": "ERp44 disulfide bonding with client proteins, non-reducing immunoblot", "type": "cell-based", "settings": "MDA-MB-468 cells overexpressing ERp44[S61C], 7.5 μM, 24 h, FIG. 6B", "experimental": "as §2"}, "ERAP1": {"tested_on": "ERAP1", "test": "ERAP1 retention/secretion in MDA-MB-468 cells, immunoblot", "type": "cell-based", "settings": "MDA-MB-468 stable cell lines expressing ERp44, 24 h, FIG. 4E", "source_text": "as §1, §2"}, "ERp44 [3]": {"biological_target": "T2, ERp44 (Homo sapiens, UniProt Q9BS26)", "T2 sequence (Q9BS26 30-406)": "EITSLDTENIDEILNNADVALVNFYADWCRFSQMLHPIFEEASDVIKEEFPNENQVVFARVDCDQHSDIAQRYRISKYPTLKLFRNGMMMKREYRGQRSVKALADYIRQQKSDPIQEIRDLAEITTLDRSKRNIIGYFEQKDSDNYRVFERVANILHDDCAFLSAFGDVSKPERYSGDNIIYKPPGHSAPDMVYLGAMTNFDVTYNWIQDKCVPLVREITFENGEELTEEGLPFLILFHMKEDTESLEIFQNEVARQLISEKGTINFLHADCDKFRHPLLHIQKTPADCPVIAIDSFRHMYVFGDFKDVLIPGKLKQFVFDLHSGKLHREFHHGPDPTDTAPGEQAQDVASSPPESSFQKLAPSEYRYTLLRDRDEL", "test": "ERp44 disulfide bonding with client proteins, non-reducing immunoblot", "type": "cell-based", "parameters": "endogenous in cells; host or cells: MDA-MB-468", "settings": "MDA-MB-468 cells overexpressing wild type ERp44, 7.5 μM, 24 h, FIG. 6B", "experimental": "as §2"}, "[4]": {"settings": "compared with tcyDTDO, FIG. 1E left"}}, "data": [{"smiles": "O=S1(=O)CC2CC(F)C(F)CC2CS1", "note": "(centres unmarked) [dFtcyDTDO, difluoro-tcyDTDO]", "values": [{"measurement": "Tumors in mammary fat pads, H&E histology", "setting": "[1]", "result": "tumors were not observed"}, {"measurement": "Potency in cell viability assays relative to tcyDTDO", "setting": "MDA-MB-468 cells", "result": "approximately two-fold greater potency than tcyDTDO"}, {"measurement": "Concentration at which disulfide-mediated oligomerization of DR4 was detected", "setting": "DR4; FIG. 1E right", "result": 625, "unit": "nM"}, {"measurement": "DR4/5 oligomerization at the same concentration (DR4)", "setting": "DR4; [4]", "result": "more DR4/5 oligomerization"}, {"measurement": "Concentration at which disulfide-mediated oligomerization of EGFR was detected", "setting": "EGFR", "result": 625, "unit": "nM"}, {"measurement": "DR5 upregulation in cells overexpressing C58S or S61C ERp44 mutants", "setting": "DR5; 7.5 μM, FIG. 6B", "result": "potentiated DR5 upregulation"}, {"measurement": "Concentration at which oligomerization of DR5 was observed", "setting": "DR5; FIG. 1E right", "result": 1.25, "unit": "µM"}, {"measurement": "DR4/5 oligomerization at the same concentration (DR5)", "setting": "DR5; [4]", "result": "more DR4/5 oligomerization"}, {"measurement": "DR5 levels at the same concentration", "setting": "DR5; [4]", "result": "higher DR5 levels"}, {"measurement": "Concentration at which induction of ERS (GRP78 elevation) was detected", "setting": "GRP78; FIG. 1E right", "result": 625, "unit": "nM"}, {"measurement": "ERS at the same concentration", "setting": "GRP78; [4]", "result": "greater ERS"}, {"measurement": "Disruption of S61C ERp44 mutant binding to its clients, versus wild type", "setting": "ERp44 [2]", "result": "less sensitive to disruption of binding to its clients"}, {"measurement": "ERAP1-ERp44 disulfide-bonded dimer", "setting": "ERAP1", "result": "reduced"}, {"measurement": "Disulfide bonding of overexpressed ERp44 to client proteins", "setting": "ERp44 [3]", "result": "partially blocked"}]}]}
